Where “and” joins values, the source holds several entries; their conditions need not be identical. Equal entries are not always repeated. Entries after “also recorded” stand apart in the source; their conditions may differ. Where two headings read alike, the source gives them in different places.
Columns and labels:
5HT3A receptors [1] = biological target: T1, 5HT3A receptors (Mus musculus, UniProt P23979); experiment: Intact cell competitive radioligand binding assay ([3H]-granisetron, SPA), LGIC-CNiFERs; settings: Kd ± SD, 5HT3A, >10 = did not pass initial screen at 10 μM
T1 construct: expressed in transfected cells; host or cells: HEK293 cells co-expressing TN-XXL
T1 sequence (P23979 24-489): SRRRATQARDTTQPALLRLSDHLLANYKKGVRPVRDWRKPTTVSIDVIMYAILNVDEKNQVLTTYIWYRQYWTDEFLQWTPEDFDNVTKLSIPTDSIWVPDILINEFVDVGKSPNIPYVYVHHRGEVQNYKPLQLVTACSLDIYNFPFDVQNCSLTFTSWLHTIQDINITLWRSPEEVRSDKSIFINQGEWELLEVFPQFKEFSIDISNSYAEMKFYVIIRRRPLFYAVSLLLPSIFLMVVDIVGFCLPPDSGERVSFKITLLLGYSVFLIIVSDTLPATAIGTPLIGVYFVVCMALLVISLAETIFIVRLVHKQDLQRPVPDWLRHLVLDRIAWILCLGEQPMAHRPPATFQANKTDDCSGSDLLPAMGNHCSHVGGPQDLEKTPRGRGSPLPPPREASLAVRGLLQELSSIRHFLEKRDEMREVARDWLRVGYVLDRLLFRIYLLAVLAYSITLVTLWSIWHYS

5HT3A receptors [2] = biological target: T1, 5HT3A receptors; experiment: FRET functional assay (agonist/antagonist) using LGIC-CNiFERs; format: cell-based; settings: for EC50: read-out: Agonist EC50 ± SD, 5HT3A
Experimental: (§1) Initially, the agonist properties of tested compounds were assessed directly. […] All α7-nAChR functional assays were performed in the presence of PNU-120596, an α7-nAChR positive allosteric modulator (PAM), to increase signal and delay the sensitization state of α7-nAChRs enabling the measurement of more prolonged FRET signals.^29 Compounds having agonist responses of >0.20 were determined for EC50, and compounds having inhibition fraction of >0.50 were determined for KA.^25 EC50>13.3 μM and KA>10 μM which are a screening concentration for agonist and antagonist, respectively were reported compounds not taken for further in the screening of receptor occupation and responses.
(§2) Agonist and antagonist elicited responses were characterized using the above CNiFER cell expressing Cys-loop ligand-gated ion channel (LGIC) receptors. […] A 96-well black, clear-bottom microplate (Greiner bio-one, Germany) was coated with poly-D-lysine (Sigma-Aldrich, St. Louis, Mo.) 50 μL/well for 30 min and washed out with Phosphate-Buffered Saline (PBS) (Corning, Cellgro, Manassas, Va.) before plating the cells. After plating and incubation at 37° C. for 1 day, the media was replaced with 100 μL of artificial cerebrospinal fluid (aCSF: 121 mM NaCl, 5 mM KCl, 26 mM NaHCO3, 1.2 mM NaH2PO4H2O, 10 mM glucose, 2.4 mM CaCl2, 1.3 mM MgSO4, 5 mM HEPES, pH 7.4) for 4032 and 5HT3A receptors, whereas 10 μM PNU-120596 (Tocris Bioscience, Bristol, UK) in aCSF with 30 min incubation at 37° C. was used for α7-nAChR. The tested compounds were prepared in aCSF for all receptors except α7-nAChR, where 10 μM PNU-120596, a positive allosteric modulator (PAM) was used. The prepared compounds were added in a separate 96-well polypropylene plate (Costar, Corning, N.Y.). Experiments were conducted at 37° C. using 436-nm excitation. Emitted light was collected at 485 nm and 528 nm. Basal fluorescence was recorded for 30 s, followed by addition of 50 μL of ligand (first addition). Measurements were made at 3.84 s intervals for 2 min to measure the agonistic effect. […] Agonist and antagonist properties were sequentially screened at the final concentration of 13.3 and 10 μM, respectively, which differed from the screening concentration from intact cell binding assay (10 μM).

α4β2-nAChRs [3] = biological target: T2, α4β2-nAChRs (Homo sapiens, UniProt P17787+P43681); experiment: as above; format: cell-based; settings: for Functional properties at α4β2-nAChRs (agonist / antagonist, type): functional screening and characterization
T2 construct: expressed in transfected cells; host or cells: HEKtsA201 cells co-expressing TN-XXL
Experimental: as §1, §2

α7-nAChRs = biological target: T3, α7-nAChRs (Homo sapiens, UniProt P36544); experiment: as above; format: cell-based; settings: in presence of 10 μM PNU-120596; * partial agonist; >10 = did not pass initial screen; read-out: Agonist EC50 ± SD, α7
T3 construct: expressed in transfected cells; host or cells: HEKtsA201 cells co-expressing TN-XXL
Experimental: as §1, §2

[4] = biological target: α7/5HT3A chimera receptor (hα7/m5HT3A), used for α7-nAChRs (UniProt P23979+P36544, M226I/T225I); experiment: Intact cell competitive radioligand binding assay ([3H]-(±)-epibatidine, SPA), LGIC-CNiFERs; settings: for Kd: read-out: Kd ± SD, α7-nAChRs, >10 = did not pass initial screen at 10 μM
α4β2-nAChRs [5] = biological target: T2, α4β2-nAChRs; experiment: as above; settings: 10 μM, more than 50% radioligand displacement
[6] = system: physiologically induced amnesia mice; experiment: ORT with 24 h time delay (natural memory loss); format: in vivo; settings: 24 h delay; i.p.
Experimental: Both compounds were further evaluated on a physiologic amnesic model by using ORT with 24 h time delay to induce natural memory loss in mice. The appropriate time delay causing amnesia was initially selected by varying delay times (24, 48, and 72 h) between sample and test phase that have identical and different objects, respectively. […] Therefore, 24 h was used as the time delay between sample and test phase.
FIG. 27 illustrates exploration time to familiar (F) and novel (N) objects in test phase of ORT following a time delay. Each mouse was allowed to explore an open field apparatus for 5 min in a habituation phase one day before a sample phase. In the test day, vehicle (SH) and test compounds IND8, QND8 and PNU were injected 1 h before measurement of exploration time. Each mouse was allowed to explore 2 identical objects in the sample phase for 5 min. On the next day (24 h), one of the objects was changed to a new one and the mouse was allowed to explore these objects for 5 min. The exploration time of these objects was recorded. Data are presented as means±SE, n=6-8 mice/group. **p<0.01, ***p<0.001 vs exploration time of familiar object, paired student's t-test.
The DI was calculated and compared with the control group to evaluate IND8, QND8, and PNU-282987 enhancement of cognitive function. Data are shown in FIG. 28, which illustrates discrimination index (TN−TF/TN+TF) of each compound in the test phase of ORT with time delay protocol. There was a significant difference in DI (F6,43=6.097, p<0.001, n=6-8 mice/group). **p<0.01, ***p<0.001 vs vehicle group (SH), one-way ANOVA with Fisher's LSD post hoc comparison.
The apparatus used in this experiment was the same as ORT test. This experiment was divided into 2 parts directed to dose finding and establishing mechanism of action.
For dose finding protocol, the mice were randomly divided into different treatment groups, a control group receiving a vehicle and tested groups receiving PNU-282987 at 3, 10 mg/kg, and IND8, QND8 for 10, 25 μmol/kg, single dose. They were allowed to freely explore the open field apparatus for 5 min for habituation in a day before the experiment (day 1). On the test day (day 2), the test compound was injected 1 h before the sample phase. In this phase, mice were placed in the apparatus to explore two identical objects. On the next day (day 3), one object was changed to a new one and mice were allowed to explore these objects for 5 min in the test phase. For proving cognitive enhancement mediated through α7-nAChRs, the protocol was the same as mentioned above except MLA (3 mg/kg), selective α7-nAChR antagonist, was injected 5 min before test compounds in the sample phase (day 2) to block the cognitive enhancement effect from test compounds. The dose of test compounds is selected from the effective dose from the former experiment. The exploration time of each object was recorded if the nose of mouse came within 3 cm or touched the objects. The discrimination index (DI) was calculated by using (TN−TF)/(TN+TF); TN and TF represented exploration time of new and familiar objects, respectively.

[7] = Antagonist KA ± SD, α4β2, competitive antagonist (^C), >10 = did not pass initial screen, vs (±)-epibatidine
[8] = read-out: Antagonist KA ± SD, α4β2, non-competitive

| Structure (SMILES) | Kd (5HT3A receptors [1]) | EC50 (5HT3A receptors [2]) [µM] | Kd (α4β2-nAChRs [3]; [7]) [µM] | EC50 (α7-nAChRs) [µM] | Fold increase of Kd (α7-nAChRs) compared to IND8 [4] [fold] | Kd [4] [µM] | Initial screening for binding to α4β2-nAChRs (α4β2-nAChRs [5]) | Functional properties at α4β2-nAChRs (agonist / antagonist, type) (α4β2-nAChRs [3]) | Kd (α4β2-nAChRs [3]; [8]) [µM] | Kd (5HT3A receptors [2]; competitive antagonist (^C), >10 = did not pass initial screen, vs 5-HT, read-out: Antagonist KA ± SD, 5HT3A) [µM] | Discrimination index / cognition enhancement, ORT time delay vs control group [6] |
| --- | --- | --- | --- | --- | --- | --- | --- | --- | --- | --- | --- |
| c1ccc2c(-c3cn(C4CN5CCC4CC5)nn3)c[nH]c2c1 (stereo not shown) [QND12, 3-(4-(Indol-3-yl)-1,2,3-triazol-1-yl)quinuclidine] | 0.02 to 0.05 µM and 0.02 µM | 0.34 ± 0.13 | > 10 | 0.45 ± 0.14 | 9 | 0.92 |  |  |  |  |  |
| Cn1ccc2cc(-c3cn(C4CN5CCC4CC5)nn3)ccc21 (stereo not shown) [QND9, 3-(4-(1-Methyl-indol-5-yl)-1,2,3-triazol-1-yl)quinuclidine] |  | 1.38 ± 0.52 | 5.2 ± 1.2 | 1 ± 0.04 | 15 | 1.88 | associate well with α4β2-nAChRs | mix-competitive antagonist | 6.5 ± 0.2 |  |  |
| COc1ccc2cc(-c3cn(C4CN5CCC4CC5)nn3)ccc2c1 (stereo not shown) [QND6, 3-(4-(6-Methoxynaphthalen-2-yl)-1,2,3-triazol-1-yl)quinuclidine] |  | > 10 | 7 ± 4.5 | 22 ± 6 |  |  | associate well with α4β2-nAChRs | mix-competitive antagonist | 6.2 ± 0.4 | > 10 |  |
| CCN1C[C@]2(COC(=O)c3ccccc3N3C(=O)C[C@H](C)C3=O)CC[C@H](OC)[C@@]34[C@@H]5C[C@H]6[C@H](OC)[C@@H]5[C@](O)(C[C@@H]6OC)[C@@](O)([C@@H](OC)[C@H]23)[C@@H]14 [MLA, methyllycaconitine, reference compound] |  |  |  |  |  |  |  |  |  |  | does not enhance episodic memory; also recorded: did not have cognitive enhancement effect |
